Measured values published in US8143282B2, “Heterocyclic compounds” (S*BIO Pte Ltd., priority 2005, dated 2012).

How the values were obtained:
[1] = biological target: T1, HDAC1 enzyme (Homo sapiens, UniProt Q13547); experiment: In vitro HDAC assay for determination of IC50 values (BIOMOL fluorescent-based HDAC activity assay); type: biochemical
T1 construct: Amplification of human HDAC1 coding region from this cDNA library was cloned separately into the baculovirus expression pDEST20 vector; made in house; host or cells: SF9 insect cells, pDEST20-HDAC1 baculovirus
Description: Human cDNA library was prepared using cultured SW620 cells. Amplification of human HDAC1 coding region from this cDNA library was cloned separately into the baculovirus expression pDEST20 vector (GATEWAY Cloning Technology, Invitrogen Pte Ltd). The pDEST20-HDAC1 construct was confirmed by DNA sequencing. Recombinant baculovirus was prepared using the Bac-To-Bac method following the manufacturer's instruction (Invitrogen Pte Ltd).
Expression of GST-HDAC1 was done by infecting SF9 cells (Invitrogen Pte Ltd) with pDEST20-HDAC1 baculovirus at MOI=1 for 48 h. Soluble cell lysate was incubated with pre-equilibrated Glutathione Sepharose 4B beads (Amersham) at 4° C. for 2 h. The beads were washed with PBS buffer for 3 times. The GST-HDAC1 protein was eluted by elution buffer containing 50 mM Tris, pH8.0, 150 mM NaCl, 1% Triton X-100 and 10 mM or 20 mM reduced Glutathione. The purified GST-HDAC1 protein was dialyzed with HDAC storage buffer containing 10 mM Tris, pH7.5, 100 mM NaCl and 3 mM MgCl2. 20% Glycerol was added to purified GST-HDAC1 protein before storage at −80° C.
The assay has been carried out in 96 well format and the BIOMOL fluorescent-based HDAC activity assay has been applied. […] Flur de lys Developer was added and the reaction was incubated for 10 min. Briefly, deacetylation of the substrate sensitizes it to the developer, which then generates a fluorophore. The fluorophore is excited with 360 nm light and the emitted light (460 nm) is detected on a fluorometric plate reader (Tecan Ultra Microplate detection system, Tecan Group Ltd.).
The analytical software, Prism 4.0 (GraphPad Software Inc) has been used to generate IC50 from a series of data.

[2] = system: Colo205 cells; experiment: Cell-based proliferation assay for GI50 (CyQUANT), Colo205; details: Homo sapiens, COLO 205, 96 h treatment, read-out: Cellular or Growth Inhibition Activity in Colo205 cells, GI50
Description: Human colon cancer cell lines (Colo205, HCT116), Ovarian cancer cell line (A2780), Hepatoma cell line (HEP3B), Prostate cancer cell line (PC3) were obtained from ATCC or ECACC. Colo205 cells were cultivated in RPMI 1640 containing 2 mM L-Glutamine, 5% FBS, 1.0 mM Na Pyruvate, 1 U/ml of penicillin and 1 μg of streptomycin. HCT116 cells were cultivated in McCoy's containing RPMI 1640 containing 2 mM L-Glutamine, 5% FBS, 1 U/ml of penicillin and 1 μg of streptomycin. A2780 cells were cultivated in RPMI 1640 containing 2 mM L-Glutamine, 5% FBS, 1 U/ml of penicillin and 1 μg of streptomycin. HEP3B cells were cultivated in EMEM containing 2 mM L-glutamine, 5% FBS, 1% non essential amino acid, 1 mM Na Pyruvate, 1 U/ml of penicillin and 1 μg of streptomycin. PC3 cells were cultivated in F12K, 2 mM L-glutamine, 5% FBS, 1 U/ml of penicillin and 1 μg of streptomycin. PC3, Colo205, and HCT116 cells were seeded in 96-wells plate at 1000, 5000 and 6000 cells per well respectively. A2780 and HEP3B cells were seeded in 96-wells plate at 4000 cells per well respectively. The plates were incubated at 37° C., 5% CO2, for 24 h. Cells were treated with compounds at various concentrations for 96 h. Cell growth was then monitored using CyQUANT® cell proliferation assay (Invitrogen Pte Ltd). Dose response curves were plotted to determine GI50 values for the compounds using XL-fit (ID Business Solution, Emeryville, Calif.). GI50 is defined as the concentration of compound required for 50% inhibition of cell growth.

T1 sequence (Q13547 whole entry): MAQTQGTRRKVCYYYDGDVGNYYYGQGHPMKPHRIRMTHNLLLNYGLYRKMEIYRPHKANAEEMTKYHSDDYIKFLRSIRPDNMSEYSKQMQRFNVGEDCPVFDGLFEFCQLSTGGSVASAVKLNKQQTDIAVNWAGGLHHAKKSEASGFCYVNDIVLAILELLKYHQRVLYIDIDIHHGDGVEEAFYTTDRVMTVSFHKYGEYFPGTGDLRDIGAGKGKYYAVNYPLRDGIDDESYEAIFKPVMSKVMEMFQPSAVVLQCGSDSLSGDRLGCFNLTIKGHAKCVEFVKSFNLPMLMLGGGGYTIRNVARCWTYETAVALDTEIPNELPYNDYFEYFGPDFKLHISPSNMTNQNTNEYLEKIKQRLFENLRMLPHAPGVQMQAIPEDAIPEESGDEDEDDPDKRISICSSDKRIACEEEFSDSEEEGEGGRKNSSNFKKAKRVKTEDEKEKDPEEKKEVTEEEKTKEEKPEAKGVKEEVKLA

Structure (SMILES)	IC50 [1] [nM]	GI50 [2] [nM]
C=CCCCN1CCCC(n2cnc3cc(/C=C/C(=O)NO)ccc32)C1 (stereo not drawn) [Compound 103, (E)-N-hydroxy-3-(1-(1-(pent-4-enyl)piperidin-3-yl)-1H-benzo[d]imidazol-5-yl)acrylamide]	100	480
CC(C)(C)CCNCCn1cnc2cc(/C=C/C(=O)NO)ccc21 [Compound 126, 3-{1-[2-(3,3-Dimethyl-butylamino)-ethyl]-1H-benzoimidazol-5-yl}-N-hydroxy-acrylamide]	42	420
CCCCCCc1nc2cc(/C=C/C(=O)NO)ccc2n1C1CCCN(CCO)C1 (stereo not drawn) [Compound 90, 3-{2-Hexyl-1-[1-(2-hydroxy-ethyl)-piperidin-3-yl]-1H-benzoimidazol-5-yl}-N-hydroxy-acrylamide]	510	8100
CCCCCCCN(CC)CCn1cnc2cc(/C=C/C(=O)NO)ccc21 [Compound 89, 3-{1-[2-(Ethyl-heptyl-amino)-ethyl]-1H-benzoimidazol-5-yl}-N-hydroxy-acrylamide]	80	870
CC(C)N(CCCC(F)(F)F)CCn1cnc2cc(/C=C/C(=O)NO)ccc21 [Compound 114, (E)-N-hydroxy-3-(1-(2-(isopropyl(4,4,4-trifluorobutyl)amino)ethyl)-1H-benzo[d]imidazol-5-yl)acrylamide]	63	720
O=C(/C=C/c1ccc2c(c1)ncn2C1CCN(CCc2ccccc2)C1)NO (stereo not drawn) [Compound 93, (E)-N-hydroxy-3-(1-(1-phenethylpyrrolidin-3-yl)-1H-benzo[d]imidazol-5-yl)acrylamide]	230	2140
CCCCc1nc2cc(/C=C/C(=O)NO)ccc2n1C1CCN(C)C1 (stereo not drawn) [Compound 81, 3-[2-Butyl-1-(1-methyl-pyrrolidin-3-yl)-1H-benzoimidazol-5-yl]-N-hydroxy-acrylamide]	120	1000
CN(C)CC(C)(C)Cn1c(C2CC3C=CC2C3)nc2cc(/C=C/C(=O)NO)ccc21 (stereo not drawn) [Compound 25, 3-[2-Bicyclo[2.2.1]hept-5-en-2-yl-1-(3-dimethylamino-2,2-dimethyl-propyl)-1H-benzoimidazol-5-yl]-N-hydroxy-acrylamide]	230	2380
CCCN(CCn1cnc2cc(/C=C/C(=O)NO)ccc21)CC(C)(C)C [Compound 134, 3-(1-{2-[(2,2-Dimethyl-propyl)-propyl-amino]-ethyl}-1H-benzoimidazol-5-yl)-N-hydroxy-acrylamide]	220	2300
CCCCc1nc2cc(/C=C/C(=O)NO)ccc2n1C1CCN(Cc2ccccc2)CC1 [Compound 48, 3-[1-(1-Benzyl-piperidin-4-yl)-2-butyl-1H-benzoimidazol-5-yl]-N-hydroxy-acrylamide]	430	780
CCN(CC)CCn1cnc2cc(/C=C/C(=O)NO)ccc21 [Compound 100, (E)-3-(1-(2-(diethylamino)ethyl)-1H-benzo[d]imidazol-5-yl)-N-hydroxyacrylamide]	190	2250
O=C(/C=C/c1ccc2c(c1)ncn2C1CCCN(CCCc2ccccc2)C1)NO (stereo not drawn) [Compound 97, (E)-N-hydroxy-3-(1-(1-(3-phenylpropyl)piperidin-3-yl)-1H-benzo[d]imidazol-5-yl)acrylamide]	100	670

Results, then the molecule that gave them:

IC50 [1] [nM]	GI50 [2] [nM]	Structure (SMILES)
260	2660	CC(C)N(CCn1c(CC(C)(C)C)nc2cc(/C=C/C(=O)NO)ccc21)C(C)C [Compound 20, 3-[1-(2-Diisopropylamino-ethyl)-2-(2,2-dimethyl-propyl)-1H-benzoimidazol-5-yl]-N-hydroxy-acrylamide]
17	160	CCCCC/C=C\CCc1nc2cc(/C=C/C(=O)NO)ccc2n1CCNC [Compound 72, N-Hydroxy-3-[1-(2-methylamino-ethyl)-2-non-3-enyl-1H-benzoimidazol-5-yl]-acrylamide]
40	370	CC/C=C\CCc1nc2cc(/C=C/C(=O)NO)ccc2n1CCN(CC)CC [Compound 26, 3-[1-(2-Diethylamino-ethyl)-2-hex-3-enyl-1H-benzoimidazol-5-yl]-N-hydroxy-acrylamide]
66	330	CC(C)(C)CCNCCn1c(CC(C)(C)C)nc2cc(/C=C/C(=O)NO)ccc21 [Compound 131, 3-[1-[2-(3,3-Dimethyl-butylamino)-ethyl]-2-(2,2-dimethyl-propyl)-1H-benzoimidazol-5-yl]-N-hydroxy-acrylamide]
48	490	CCCCCN(CCn1cnc2cc(/C=C/C(=O)NO)ccc21)C(C)C [Compound 109, N-Hydroxy-3-{1-[2-(isopropyl-pentyl-amino)-ethyl]-1H-benzoimidazol-5-yl}-acrylamide]
420	5500	CN(C)CC(C)(C)Cn1c(CCC(F)(F)F)nc2cc(/C=C/C(=O)NO)ccc21 [Compound 13, 3-[1-(3-Dimethylamino-2,2-dimethyl-propyl)-2-(3,3,3-trifluoro-propyl)-1H-benzoimidazol-5-yl]-N-hydroxy-acrylamide]
74	630	CCCN(CCn1cnc2cc(/C=C/C(=O)NO)ccc21)C(C)C [Compound 107, (E)-N-hydroxy-3-(1-(2-(isopropyl(propyl)amino)ethyl)-1H-benzo[d]imidazol-5-yl)acrylamide]
170	2580	CCOCc1nc2cc(/C=C/C(=O)NO)ccc2n1CC(C)(C)CN(C)C [Compound 5, 3-[1-(3-Dimethylamino-2,2-dimethyl-propyl)-2-ethoxymethyl-1H-benzoimidazol-5-yl]-N-hydroxy-acrylamide]
66	260	CC(Cc1nc2cc(/C=C/C(=O)NO)ccc2n1CCN(C)C)CC(C)(C)C (stereo not drawn) [Compound 51, 3-[1-(2-Dimethylamino-ethyl)-2-(2,4,4-trimethyl-pentyl)-1H-benzoimidazol-5-yl]-N-hydroxy-acrylamide]
480	1880	CCCCCCN(CC)CCn1c(C(F)(F)F)nc2cc(/C=C/C(=O)NO)ccc21 [Compound 118, 3-{1-[2-(Ethyl-hexyl-amino)-ethyl]-2-trifluoromethyl-1H-benzoimidazol-5-yl}-N-hydroxy-acrylamide]
230	1420	CC/C=C\CCc1nc2cc(/C=C/C(=O)NO)ccc2n1CCN(C(C)C)C(C)C [Compound 27, 3-[1-(2-Diisopropylamino-ethyl)-2-hex-3-enyl-1H-benzoimidazol-5-yl]-N-hydroxy-acrylamide]
18	290	CCCCCCCCc1nc2cc(/C=C/C(=O)NO)ccc2n1CCNC [Compound 76, N-Hydroxy-3-[1-(2-methylamino-ethyl)-2-octyl-1H-benzoimidazol-5-yl]-acrylamide]
27	150	CCC(CC)CN(C)CCn1cnc2cc(/C=C/C(=O)NO)ccc21 [Compound 123, 3-(1-{2-[(2-Ethyl-butyl)-methyl-amino]-ethyl}-1H-benzoimidazol-5-yl)-N-hydroxy-acrylamide]
54	2600	CCCC(=O)NCc1nc2cc(/C=C/C(=O)NO)ccc2n1CCN(CC)CC [Compound 62, N-[1-(2-Diethylamino-ethyl)-5-(2-hydroxycarbamoyl-vinyl)-1H-benzoimidazol-2-ylmethyl]-butyramide]
53	390	CCCc1nc2cc(/C=C/C(=O)NO)ccc2n1CCN(C)CCC(C)(C)C [Compound 136, 3-(1-{2-[(3,3-Dimethyl-butyl)-methyl-amino]-ethyl}-2-propyl-1H-benzoimidazol-5-yl)-N-hydroxy-acrylamide]
